The values below come from a melting point compilation (Tetko et al.; mined from patent text by program, amines drawn as free bases though some values may be those of a salt).

Usually melting point stands for the temperature, or range, at which the solid turns liquid.

Compound `CCCC(=O)OCC(=O)C12OCOC1CC1C3CCC4=CC(=O)C=CC4(C)C3C(O)CC12C` (stereo unspecified) gave a melting point of 140 to 141 °C.
With `COc1cc(-c2ncc(S(C)=O)cc2Cl)c(F)cc1Cl` (stereo unspecified), the melting point is 117 to 118 °C.
`CNc1cc(Oc2ccc3c(c2)CCCN3C(=O)Nc2ccc(C(C)(C)C)cc2)ncn1` showed a melting point of 175 to 176 °C.
`[N-]=[N+]=NCC1=C(C(=O)O)N2C(=O)C(NC(=O)Cc3csc(=O)s3)C2SC1` (stereo unspecified) had a melting point of 160 °C.
Compound `COC(CCc1ccc(Cl)cc1Cl)(Cn1cncn1)C(C)(C)C1OCCCO1` (stereo unspecified) gave a melting point of 130 to 132 °C.
The same measure for `N#Cc1ccc2c(OCc3ccccc3)cc(C(=O)O)cc2c1`: 235 °C.
Regarding `CCOC(=O)/C=C(/c1ccc(OC)cc1)c1cc(F)cc(F)c1`, the melting point lay in the range of 65 to 66 °C.
As for `N=C(NNC(=O)c1ccccc1)C(Cl)(Cl)Cl`, the figure is 170 to 172 °C.
With `COc1cc(O)c(C=O)cc1OC`, the melting point lay in the range of 104 to 105 °C.
The compound `CCCc1ncc2cc(Cl)nc(OC)n12` returned a melting point of 76 to 77 °C.
The same measure for `CC1(C)CC(=Cc2nc3cc(O)ccc3o2)CC(C)(C)C1`: 160 to 162 °C; for `O=C(NCCCl)c1c(Cl)cccc1Cl`: 114 °C; for `COc1ccc2c(c1)CC(C)C2=O` (stereo unspecified): 73 to 76 °C.
`CC(=O)n1c(=O)n(CCCN2CCN(C(c3ccccc3)c3ccccc3)CC2)c2ccccc21` had a melting point of 124 °C.
For the compound `CC(=O)N[C@@H]1CN(C(=O)c2nn(C)c3ccccc23)C[C@@H]1C` (relative stereo), the melting point fell in the range of 202 to 204 °C.
The compound `O=C1CCCCCN1C(=O)c1ccccc1` returned a melting point of 69 °C.
`O=S(=O)(NCCCCOc1ccc(-n2cnnn2)cc1)c1ccc(Br)cc1` yielded a melting point of 109 to 110 °C.
With `CCCCCCCC/C=C\c1ccccc1/C=C/C(C)=C/C=C/C(C)=C/C(=O)O`, the melting point lay in the range of 103 to 105 °C.
`O=C1N(Cc2cnc(N3CCCCC3)s2)c2ccccc2C12COc1cc3c(cc12)OCO3` (stereo unspecified) registered a melting point of 195 to 197 °C.
As for `COc1cc(NC(=O)OC(C)(C)C)c(N)cc1-c1ccccc1F`, the figure is 161 °C; as for `CCOC(=O)C(C)(C)c1ccc(NC(C)=O)cc1`, 76 to 76.5 °C; as for `O=C(O)C(O)Cc1ccccc1[N+](=O)[O-]` (stereo unspecified), 95 to 98 °C.
In turn, `N#Cc1c(CNC(=O)C2(S(=O)(=O)c3ccc(Cl)cc3)CCCC2)nn(-c2ccccc2Cl)c1-c1ccc(Cl)cc1` returned a melting point of 109 °C.
The same measure for `Cc1cnc2c(NC(=O)c3c(Cl)cccc3Cl)ccc(C)c2c1Cl`: 236 to 240 °C.
In turn, `C[C@@H](NC(=O)C1(C)CC1)c1ccc2ccccc2c1` yielded a melting point of 91 °C.
In turn, `Oc1ccc(-c2nn(-c3ccc(Br)cc3)c3c(C(F)(F)F)cccc23)cc1` came in with a melting point of 176 to 177 °C.
Regarding `Fc1cncc(F)c1C1=NC(c2ccc(I)cc2)CO1` (stereo unspecified), the melting point fell in the range of 84 to 86 °C.
Regarding `CCOC(=O)COc1ccc(C=O)cc1NC(=O)c1ccc(OCCCCc2ccccc2)cc1`, the melting point lay within 109 to 110 °C.
`CCSc1nc(C#N)c(C#N)nc1C` had a melting point of 91.5 to 92.5 °C.
As to `C=CCc1ccc2oc(C(=O)O)cc(=O)c2c1O`, the melting point lay within 222 to 224 °C.
`CCC1(CC)Nc2ccccc2-c2c([N+](=O)[O-])cnn21` showed a melting point of 132 to 134 °C.
Regarding `COCCNC(=O)c1cnc(C(=O)O)c(OC)c1`, the melting point lay within 160 to 161 °C.
As to `COc1cc(COc2nn(-c3ccccc3)cc2C=O)ccc1OCc1nc(-c2cccnc2)oc1C`, the melting point fell in the range of 161 to 162 °C.
In the case of `CCOC(=O)COc1ccc(SCCc2cccc3sc(-c4ccc(C(F)(F)F)cc4)nc23)cc1C`, the melting point fell in the range of 97 to 100 °C.
Take `CCCC#CCn1ncc(-c2ccc(S(C)(=O)=O)cc2)c(-c2ccc(F)cc2)c1=O`: the melting point was in the range of 79 to 80 °C.
Regarding `O=C(CBr)c1ccc(Br)c(Br)c1`, the melting point fell in the range of 60 to 61 °C.
Consider `CC(=O)C(=Cc1cc(O)c(O)c(Cl)c1)C(C)=O`, for which the melting point was in the range of 167 to 171 °C.
As for `Cc1ccc(S(=O)(=O)N2CCCN(c3cccc(C)c3C)CC2)cc1`, the figure is 86.2 °C; as for `COC(=O)C1CCSSC(C)(C)C(=O)N1` (stereo unspecified), 110 to 112 °C; as for `O=C(O)CCc1ccc(Cl)cc1F`, 83 to 85 °C.
As for `COC(=O)CCCCC1C(C(=O)OC)=C(C)NC(C)=C1C(=O)OC`, the figure is 80 to 81 °C.
For `CNS(=O)(=O)OCC(COc1ccccc1OC)OS(N)(=O)=O` (stereo unspecified), the melting point was in the range of 110 to 113 °C.
For `Oc1cccc(-c2cc3n(n2)-c2ccccc2CC3)c1`, the melting point is 172 to 175 °C.
Compound `CCOC(=O)C1=C(N)OC(C)=C(C(=O)OC(C)C)C1c1cccc([N+](=O)[O-])c1` (stereo unspecified) registered a melting point of 135 °C.
In turn, `NC(=O)c1ccc(Cc2ccccc2)cn1` had a melting point of 193 to 196 °C.
As for `CN(C(=O)C1(CCCCCCCCCCCCC2(C(=O)O)CC2)CC1)S(C)(=O)=O`, the figure is 62.9 to 63.7 °C; as for `O=c1ccc2ccc(OCCCN3CCC(C(O)(c4ccc(F)cc4)c4ccc(F)cc4)CC3)cc2o1`, 99 to 120 °C; as for `Nc1nc2ccccc2c2c1ncn2CCCCS(=O)(=O)c1ccccc1`, 175 to 177 °C.
Compound `CC(=O)OC(C)c1nccc2[nH]c(=O)ccc12` (stereo unspecified) returned a melting point of 185 to 187 °C.
In turn, `CCOC(=O)C(=CNc1ccc(COC(C)=O)cc1I)C(=O)OCC` yielded a melting point of 128 to 131 °C.
`NNc1ccc([N+](=O)[O-])cc1S(N)(=O)=O` registered a melting point of 209 to 210 °C.
Consider `O=C(O)c1cc(C(F)(F)F)ccc1I`, for which the melting point was 171 to 172 °C.
As to `O=C(Nc1ccc(Cl)cc1)C(Cl)CCl` (stereo unspecified), the melting point is 128 to 129 °C.
As for `COC(=O)COc1cccc2c1c(C(=O)C(N)=O)c(C)n2Cc1cccc2ccccc12`, the figure is 188 to 190 °C.
For `CC1(C)COC(C)(C)N1C(=O)OCCN(Cc1ccccc1)Cc1ccccc1`, the melting point is 32 °C.
With `NC1CN(c2c(F)c(F)c3c(=O)c(C(=O)O)cn(C4CC4)c3c2F)CC1CF` (stereo unspecified), the melting point was in the range of 252 to 253 °C.
The compound `N=C(N)SCc1c(Cl)ccc2c1oc1c(CSC(=N)N)c(Cl)ccc12` came in with a melting point of over 220 °C.
`CC1(C(=O)O)CCCc2cc(C3CCCCC3)c(Cl)cc21` (stereo unspecified) gave a melting point of 167 to 168 °C.
As for `O=C(N[C@H]1CC[C@@H](O)C1)OCc1ccccc1` (relative stereo), the melting point was 62 to 63 °C.
The same measure for `O=c1c(Br)c(OCc2ccc(Cl)cc2F)cnn1-c1ccc(Cl)c(Cl)c1`: 172 to 173 °C; for `CCCCCCCCCCOC(C)c1ccc(C(=O)O)cc1` (single isomer, unassigned; (+)): 56.6 to 57.5 °C.
Turning to `COC(Cc1ccc(OCCN(C)c2nc3ccccc3o2)cc1)C(=O)O` (stereo unspecified), the melting point lay in the range of 121 to 123 °C.
The compound `COCCOCCCn1c(C=O)c(Br)c2c3c(c(-c4ccccc4Cl)cc21)C(=O)NC3=O` returned a melting point of 168 to 169 °C.
`CC(=O)NC[C@H]1CN(c2cc(F)c(N3CCC(Cc4noc(-c5ccccc5)n4)CC3)c(F)c2)C(=O)O1` showed a melting point of 152 to 154 °C.
Consider `CC(C)(C)OC(=O)CC1CCNC(=O)c2ccccc21` (stereo unspecified), for which the melting point fell in the range of 126 to 127 °C.
In the case of `CN1CCCC1=C(C#N)c1ccc(Cl)cc1`, the melting point is 71 to 72 °C.
For the compound `N#Cc1ccccc1-n1nnc2cccnc21`, the melting point is 177 to 179 °C.
With `CCOC(=O)NCCOC(=O)COc1cc(Oc2ccc(C(F)(F)F)cc2Cl)ccc1[N+](=O)[O-]`, the melting point is 94 to 95 °C.
The same measure for `Cc1nc2ccc(Cl)cn2c(=O)c1CCN1CCN(c2cccc(Cl)c2)CC1`: 152 to 154 °C.
Take `Cc1c(SCCN(C)Cc2ccccc2)ccnc1CSc1nc2ccccc2[nH]1`: the melting point fell in the range of 110 to 112 °C.
For `C=CCNc1nc(CO)cs1`, the melting point lay in the range of 74 to 75 °C.
Compound `CC(C)(C)c1ccccc1N1CCN(C(=O)c2nc[nH]n2)CC1` displayed a melting point of 295 °C.
As for `CCc1c(C(=O)N(O)O)cc(C(C)(C)C)c(O)c1C(C)(C)C`, the figure is 147 to 150 °C; as for `COc1ccccc1NC(=O)Cc1ccccc1`, 128 to 131 °C.
`Cc1nn(C)c2nc(N(CC(C)C)CC3CC3)c(CN(Cc3cc(C(F)(F)F)cc(C(F)(F)F)c3)c3nnn(C)n3)cc12` had a melting point of 99 to 101 °C.
Regarding `Cc1nc2c3c(c(C(=O)N(C)C)cc2[nH]1)CC[C@@H](c1ccccc1C)O3`, the melting point was found to be 219 °C.
For `CC(=O)c1cccc2c1ncn2-c1cccc([N+](=O)[O-])c1`, the melting point was in the range of 175 to 177 °C.
As for `COc1cccc2c1CC(CC(=O)O)C1(C2)OCCO1` (stereo unspecified), the figure is 129 to 130 °C; as for `COc1ccc2[nH]c(CC(C)C)c(C=O)c2c1`, 146 to 147 °C.
As for `Cc1csc2nc3ccc(C(F)(F)F)cc3n12`, the figure is 127 °C.
Regarding `CSc1ccc(C(=S)N2CCCC2)cc1`, the melting point is 116 to 118 °C.
In turn, `CC1(CO)Cc2nnc(-c3ccc(-c4ccccc4)cc3Cl)n2CCS1` (stereo unspecified) yielded a melting point of 166 to 169 °C.
As for `Cc1ccnc2c1C(=O)c1nccc(Cl)c1C2=O`, the melting point was over 300 °C.
Turning to `CN(C)NC(=O)NC1c2ccccc2Oc2ccccc21`, the melting point is 189 to 191 °C.
Regarding `COc1ccc(OCc2nc(-c3ccc(F)cc3)c(-c3ccc(S(C)(=O)=O)cc3)s2)cc1`, the melting point lay within 160 to 164 °C.
The same measure for `CCc1cc(C)c(F)c(CC)c1-c1c(O)c(C)nn(C)c1=O`: 193 to 195 °C.
Compound `COc1cc(C2=C(c3cn(C)c4ccccc34)C(=O)NC2=O)cc(OC)c1OC` came in with a melting point of 187 °C.
For `COC(=O)c1csc(-c2snnc2-c2ccccc2)n1`, the melting point turned out to be 124 °C.
In turn, `COc1ccc(CNc2cc(Cn3c(Oc4cc(C)cc(C)c4)c(C(C)C)c(=O)[nH]c3=O)cc(Cl)n2)cc1` displayed a melting point of 223 to 225 °C.
`N#Cc1ccc(Oc2c(Cl)cc(Cl)cc2Cl)cc1Cl` displayed a melting point of 108 to 116 °C.
In the case of `COc1ccc2cc(-c3cccnc3)cc(C)c2n1`, the melting point fell in the range of 117 to 118 °C.
